Patent US9642831B2, “Substituted chromanes and method of use” (AbbVie S.á.r.l., priority 2014, dated 2017)

Target: F508delCFTR (Homo sapiens, UniProt P13569, DEL508-508)
Assay: Cell Surface Expression-Horse Radish Peroxidase (CSE-HRP) assay
Format: cell-based
Design: expressed in transfected cells; host or cells: CFBE41o- human lung derived epithelial cell line, doxycycline-inducible
Conditions: CFBE4lo-F508delCFTR-HRP cells; for EC50: 18-24 hours at 33° C., 8-point curve, highest concentration 20 μM, luminescence readout; for Emax: maximum % activity at any tested concentration, normalized to on-plate positive control (3 μM Example 1)
Summary of the method: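 Following 18-24 h compound exposure at 33° C. Expression was doxycycline-induced beforehand. % activity versus DMSO and a 3 μM corrector control gave maximum activity and EC50 from a variable-Hill sigmoidal fit.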

Sequence of F508delCFTR (P13569 with tags, fused parts or gaps DEL508-508): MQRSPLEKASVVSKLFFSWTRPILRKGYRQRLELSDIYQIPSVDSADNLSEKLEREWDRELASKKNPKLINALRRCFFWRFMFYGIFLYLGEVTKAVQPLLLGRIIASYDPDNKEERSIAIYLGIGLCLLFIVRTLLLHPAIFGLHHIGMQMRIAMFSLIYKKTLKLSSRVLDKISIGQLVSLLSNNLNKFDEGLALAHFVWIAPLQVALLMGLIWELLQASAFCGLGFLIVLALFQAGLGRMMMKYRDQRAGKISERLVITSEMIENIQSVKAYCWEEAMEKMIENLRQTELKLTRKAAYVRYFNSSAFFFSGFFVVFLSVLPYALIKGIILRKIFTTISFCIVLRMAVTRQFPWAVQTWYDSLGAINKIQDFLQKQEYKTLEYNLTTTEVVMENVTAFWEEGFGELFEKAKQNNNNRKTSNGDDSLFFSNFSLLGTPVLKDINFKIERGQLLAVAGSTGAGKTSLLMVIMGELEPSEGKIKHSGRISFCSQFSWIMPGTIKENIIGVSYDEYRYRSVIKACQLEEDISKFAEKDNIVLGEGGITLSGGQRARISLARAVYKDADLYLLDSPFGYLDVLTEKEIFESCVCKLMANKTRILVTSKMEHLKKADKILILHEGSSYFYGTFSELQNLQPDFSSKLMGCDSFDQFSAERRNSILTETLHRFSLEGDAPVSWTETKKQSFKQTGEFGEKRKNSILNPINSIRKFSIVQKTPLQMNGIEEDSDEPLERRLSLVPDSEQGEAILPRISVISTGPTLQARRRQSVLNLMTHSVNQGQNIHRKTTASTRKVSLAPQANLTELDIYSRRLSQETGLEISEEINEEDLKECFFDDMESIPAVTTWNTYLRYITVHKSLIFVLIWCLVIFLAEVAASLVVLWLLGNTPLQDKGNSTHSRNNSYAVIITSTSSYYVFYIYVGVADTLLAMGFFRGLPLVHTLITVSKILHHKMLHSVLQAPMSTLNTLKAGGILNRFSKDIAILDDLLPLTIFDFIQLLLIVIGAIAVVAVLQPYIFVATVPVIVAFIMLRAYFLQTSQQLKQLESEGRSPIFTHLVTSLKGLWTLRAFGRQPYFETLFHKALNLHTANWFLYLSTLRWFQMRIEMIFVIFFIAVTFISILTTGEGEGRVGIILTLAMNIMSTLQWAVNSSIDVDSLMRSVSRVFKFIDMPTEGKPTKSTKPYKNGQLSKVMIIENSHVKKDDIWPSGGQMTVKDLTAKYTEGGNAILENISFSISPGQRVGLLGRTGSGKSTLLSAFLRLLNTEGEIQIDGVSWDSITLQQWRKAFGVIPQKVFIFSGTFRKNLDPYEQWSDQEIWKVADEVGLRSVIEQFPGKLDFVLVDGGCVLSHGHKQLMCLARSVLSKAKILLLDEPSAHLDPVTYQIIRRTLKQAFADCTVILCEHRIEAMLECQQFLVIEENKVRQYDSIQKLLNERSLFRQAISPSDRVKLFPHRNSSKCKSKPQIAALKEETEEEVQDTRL

EC50 | Emax | Compound
2710 nM | 122% | COc1ccc2c(c1)O[C@@H](c1cccc(C(=O)O)c1)C[C@@H]2NC(=O)C1(c2ccc3c(c2)OC(F)(F)O3)CC1 [Example 2, 3-[(2R,4S)-4-({[1-(2,2-difluoro-1,3-benzodioxol-5-yl)cyclopropyl]carbonyl}amino)-7-methoxy-3,4-dihydro-2H-chromen-2-yl]benzoic acid]
2450 nM | 92% | COC(=O)c1cccc([C@H]2C[C@H](NC(=O)C3(c4ccc5c(c4)OC(F)(F)O5)CC3)c3ccc(OC)cc3O2)c1 [Example 5, methyl 3-[(2R,4S)-4-({[1-(2,2-difluoro-1,3-benzodioxol-5-yl)cyclopropyl]carbonyl}amino)-7-methoxy-3,4-dihydro-2H-chromen-2-yl]benzoate]
380 nM | 120% | COC(=O)c1cccc([C@H]2C[C@@H](NC(=O)C3(c4ccc5c(c4)OC(F)(F)O5)CC3)c3ccc(OC)cc3O2)c1 [Example 6, methyl 3-[(2R,4R)-4-({[1-(2,2-difluoro-1,3-benzodioxol-5-yl)cyclopropyl]carbonyl}amino)-7-methoxy-3,4-dihydro-2H-chromen-2-yl]benzoate]
5840 nM | 58% | COC(=O)c1cccc([C@H]2C[C@H](NC(=O)C3(c4ccc5c(c4)OC(F)(F)O5)CC3)c3ccccc3O2)c1 [Example 7, methyl 3-[(2R,4S)-4-({[1-(2,2-difluoro-1,3-benzodioxol-5-yl)cyclopropyl]carbonyl}amino)-3,4-dihydro-2H-chromen-2-yl]benzoate]
1750 nM | 98% | COC(=O)c1cccc([C@H]2C[C@@H](NC(=O)C3(c4ccc5c(c4)OC(F)(F)O5)CC3)c3ccccc3O2)c1 [Example 8, methyl 3-[(2R,4R)-4-({[1-(2,2-difluoro-1,3-benzodioxol-5-yl)cyclopropyl]carbonyl}amino)-3,4-dihydro-2H-chromen-2-yl]benzoate]
4100 nM | 112% | O=C(O)c1cccc([C@H]2C[C@H](NC(=O)C3(c4ccc5c(c4)OC(F)(F)O5)CC3)c3ccccc3O2)c1 [Example 10, 3-[(2R,4S)-4-({[1-(2,2-difluoro-1,3-benzodioxol-5-yl)cyclopropyl]carbonyl}amino)-3,4-dihydro-2H-chromen-2-yl]benzoic acid]
910 nM | 102% | COC(=O)c1cccc([C@H]2C[C@@H](NC(=O)C3(c4ccc5c(c4)OC(F)(F)O5)CC3)c3cc(C)ccc3O2)c1 [Example 11, methyl 3-[(2R,4R)-4-({[1-(2,2-difluoro-1,3-benzodioxol-5-yl)cyclopropyl]carbonyl}amino)-6-methyl-3,4-dihydro-2H-chromen-2-yl]benzoate]
5470 nM | 58% | COC(=O)c1cccc([C@H]2C[C@H](NC(=O)C3(c4ccc5c(c4)OC(F)(F)O5)CC3)c3cc(C)ccc3O2)c1 [Example 12, methyl 3-[(2R,4S)-4-({[1-(2,2-difluoro-1,3-benzodioxol-5-yl)cyclopropyl]carbonyl}amino)-6-methyl-3,4-dihydro-2H-chromen-2-yl]benzoate]
2470 nM | 101% | Cc1ccc2c(c1)O[C@@H](c1cccc(C(=O)O)c1)C[C@@H]2NC(=O)C1(c2ccc3c(c2)OC(F)(F)O3)CC1 [Example 15, 3-[(2R,4S)-4-({[1-(2,2-difluoro-1,3-benzodioxol-5-yl)cyclopropyl]carbonyl}amino)-7-methyl-3,4-dihydro-2H-chromen-2-yl]benzoic acid]
370 nM | 108% | Cc1ccc2c(c1)O[C@@H](c1cccc(C(=O)O)c1)C[C@H]2NC(=O)C1(c2ccc3c(c2)OC(F)(F)O3)CC1 [Example 16, 3-[(2R,4R)-4-({[1-(2,2-difluoro-1,3-benzodioxol-5-yl)cyclopropyl]carbonyl}amino)-7-methyl-3,4-dihydro-2H-chromen-2-yl]benzoic acid]
2640 nM | 78% | COC(=O)c1cccc([C@H]2C[C@H](NC(=O)C3(c4ccc5c(c4)OC(F)(F)O5)CC3)c3ccc(C)cc3O2)c1 [Example 17, methyl 3-[(2R,4S)-4-({[1-(2,2-difluoro-1,3-benzodioxol-5-yl)cyclopropyl]carbonyl}amino)-7-methyl-3,4-dihydro-2H-chromen-2-yl]benzoate]
350 nM | 113% | COC(=O)c1cccc([C@H]2C[C@@H](NC(=O)C3(c4ccc5c(c4)OC(F)(F)O5)CC3)c3ccc(C)cc3O2)c1 [Example 18, methyl 3-[(2R,4R)-4-({[1-(2,2-difluoro-1,3-benzodioxol-5-yl)cyclopropyl]carbonyl}amino)-7-methyl-3,4-dihydro-2H-chromen-2-yl]benzoate]
800 nM | 142% | COC(=O)c1cccc([C@H]2C[C@@H](NC(=O)C3(c4ccc5c(c4)OC(F)(F)O5)CC3)c3cc(OC)ccc3O2)c1 [Example 21, methyl 3-[(2R,4R)-4-({[1-(2,2-difluoro-1,3-benzodioxol-5-yl)cyclopropyl]carbonyl}amino)-6-methoxy-3,4-dihydro-2H-chromen-2-yl]benzoate]

The remaining lines, values behind:

Compound | EC50 | Emax
CCOC(=O)c1csc([C@H]2C[C@@H](NC(=O)C3(c4ccc5c(c4)OC(F)(F)O5)CC3)c3ccc(OC)cc3O2)n1 (stereo in doubt) [Example 155, ethyl rel-2-[(2R,4R)-4-({[1-(2,2-difluoro-1,3-benzodioxol-5-yl)cyclopropyl]carbonyl}amino)-7-methoxy-3,4-dihydro-2H-chromen-2-yl]-1,3-thiazole-4-carboxylate] | 370 nM | 108%
COc1ccc2c(c1)O[C@@H](c1nc(C(=O)O)cs1)C[C@H]2NC(=O)C1(c2ccc3c(c2)OC(F)(F)O3)CC1 (stereo in doubt) [Example 156, rel-2-[(2R,4R)-4-({[1-(2,2-difluoro-1,3-benzodioxol-5-yl)cyclopropyl]carbonyl}amino)-7-methoxy-3,4-dihydro-2H-chromen-2-yl]-1,3-thiazole-4-carboxylic acid] | 1230 nM | 112%
CCOC(=O)c1csc([C@@H]2C[C@H](NC(=O)C3(c4ccc5c(c4)OC(F)(F)O5)CC3)c3ccc(OC)cc3O2)n1 (stereo in doubt) [Example 157, ethyl rel-2-[(2S,4S)-4-({[1-(2,2-difluoro-1,3-benzodioxol-5-yl)cyclopropyl]carbonyl}amino)-7-methoxy-3,4-dihydro-2H-chromen-2-yl]-1,3-thiazole-4-carboxylate] | 1520 nM | 77%
COc1ccc2c(c1)O[C@H](c1nc(C(=O)O)cs1)C[C@@H]2NC(=O)C1(c2ccc3c(c2)OC(F)(F)O3)CC1 (stereo in doubt) [Example 158, rel-2-[(2S,4S)-4-({[1-(2,2-difluoro-1,3-benzodioxol-5-yl)cyclopropyl]carbonyl}amino)-7-methoxy-3,4-dihydro-2H-chromen-2-yl]-1,3-thiazole-4-carboxylic acid] | 6650 nM | 101%
COC(=O)c1ccc([C@H]2C[C@H](NC(=O)C3(c4ccc5c(c4)OC(F)(F)O5)CC3)c3ccc(OC)cc3O2)nc1 (stereo in doubt) [Example 159, methyl rel-6-[(2R,4S)-4-({[1-(2,2-difluoro-1,3-benzodioxol-5-yl)cyclopropyl]carbonyl}amino)-7-methoxy-3,4-dihydro-2H-chromen-2-yl]pyridine-3-carboxylate] | 1360 nM | 92%
COC(=O)c1ccc([C@@H]2C[C@@H](NC(=O)C3(c4ccc5c(c4)OC(F)(F)O5)CC3)c3ccc(OC)cc3O2)nc1 (stereo in doubt) [Example 160, methyl rel-6-[(2S,4R)-4-({[1-(2,2-difluoro-1,3-benzodioxol-5-yl)cyclopropyl]carbonyl}amino)-7-methoxy-3,4-dihydro-2H-chromen-2-yl]pyridine-3-carboxylate] | 600 nM | 104%
COC(=O)c1ccc([C@@H]2C[C@H](NC(=O)C3(c4ccc5c(c4)OC(F)(F)O5)CC3)c3ccc(OC)cc3O2)nc1 (stereo in doubt) [Example 161, methyl rel-6-[(2S,4S)-4-({[1-(2,2-difluoro-1,3-benzodioxol-5-yl)cyclopropyl]carbonyl}amino)-7-methoxy-3,4-dihydro-2H-chromen-2-yl]pyridine-3-carboxylate] | 2260 nM | 82%
COC(=O)c1ccc([C@H]2C[C@@H](NC(=O)C3(c4ccc5c(c4)OC(F)(F)O5)CC3)c3ccc(OC)cc3O2)nc1 (stereo in doubt) [Example 162, methyl rel-6-[(2R,4R)-4-({[1-(2,2-difluoro-1,3-benzodioxol-5-yl)cyclopropyl]carbonyl}amino)-7-methoxy-3,4-dihydro-2H-chromen-2-yl]pyridine-3-carboxylate] | 170 nM | 105%
COc1ccc2c(c1)O[C@H](c1ccc(OC)c(OC)c1)C[C@@H]2NC(=O)C1(c2ccc3c(c2)OC(F)(F)O3)CC1 [Example 4, 1-(2,2-difluoro-1,3-benzodioxol-5-yl)-N-[(2S,4S)-2-(3,4-dimethoxyphenyl)-7-methoxy-3,4-dihydro-2H-chromen-4-yl]cyclopropanecarboxamide] | 1190 nM | 73%
Cc1ccc2c(c1)[C@@H](NC(=O)C1(c3ccc4c(c3)OC(F)(F)O4)CC1)C[C@H](c1cccc(C(=O)O)c1)O2 [Example 13, 3-[(2R,4S)-4-({[1-(2,2-difluoro-1,3-benzodioxol-5-yl)cyclopropyl]carbonyl}amino)-6-methyl-3,4-dihydro-2H-chromen-2-yl]benzoic acid] | 4570 nM | 118%
COc1cccc([C@H]2C[C@@H](NC(=O)C3(c4ccc5c(c4)OC(F)(F)O5)CC3)c3ccc(O)cc3O2)c1 [Example 20, 1-(2,2-difluoro-1,3-benzodioxol-5-yl)-N-[(2R,4R)-7-hydroxy-2-(3-methoxyphenyl)-3,4-dihydro-2H-chromen-4-yl]cyclopropanecarboxamide] | 4620 nM | 30%
